ChEMBL document CHEMBL4406882, “The plant-derived chalcone Xanthoangelol targets the membrane of Gram-positive bacteria” (Bioorg Med Chem, 2019)
Active and inactive are the calls of the source. The rule behind the calls is not given here.

Test system: Staphylococcus aureus
Experiment: Induction of membrane integrity impairment in methicillin-resistant Staphylococcus aureus ATCC 700699 at 3.125 to 12.5 uM measured for 30 mins by DiOC2(3) probe based fluorescence assay
Type: functional, organism-based

## N#CC(C#N)=NNc1cccc(Cl)c1
  Activity: Active
